The text below walks through data of patent US12497396B2, “Nitrogen-containing heterocyclic derivatives, method therefor and application therefor as inhibitors of KRAS G12C for the treatment of cancers” (SHANGHAI HANSOH BIOMEDICAL CO., LTD., priority 2019, dated 2025).

One data set is described as follows: in vitro. Format: in vitro ADME. Here is the method: (§1) Animal or human whole blood was collected, then the blood was put into a test tube containing anticoagulant, centrifuged at 3500 rpm for 10 min, and the upper layer of pale yellow plasma was collected. • 2), 10 μM of tested compound (m/M/V=C)
(§2) The compound was weighed, the stock solution was prepared with DMSO and the working solution was prepared with 100 mM phosphate buffer. • 3), 10 μM of positive control (1) Propantheline (Propantheline Mr=449.4 Da)
(§3) • 1) 285 μL of plasma and 15 μL of 10 μM compound (tested compound) were added in turn in a 96-well plate, and incubated at 37° C. • 2) 40 μL was taken out at 0, 15, 30, 60, 90, 120 min, respectively, and 160 μL of acetonitrile termination solution containing internal standard was added. • 3) After centrifugation (3500 rpm, 10 min), 50 μL of supernatant was taken out, and then diluted with 50 μL DDH2O and injected to LC-MS/MS.
(§4) • Instrument: Shimadzu LC-20 AD • Chromatographic column: phenomenex Gemiu® C18 (50*4.6 mm, 5 μM particle size); • mobile phase: A: acetonitrile, B: 0.1% formic acid solution […], 2.0-2.1 min: 90% A→5% A; flow rate: 0.8 mL/min; running time: 5.0 min; injection volume: 5 μL.
(§5) • Instrument: API4000 Liquid Chromatography-Mass Spectrometry, AB, USA; • the ion source was electrospray ionization source (ESI); • the temperature of dry gas (N2) was 500° C.; • electrospray voltage was 5500V; • the detection method was positive ion detection; • the scanning mode was selective response monitoring (MRM). • the scanning time was 0.1 s.

Data set [1] is described as follows: Plasma stability, dog plasma. Format: in vitro ADME. The conditions noted are these: dog plasma, 37° C. Here is the method: as §1, §2, §3, §4, §5
Data set [2] in a line: Plasma stability, rat plasma. The class given is in vitro ADME. The conditions noted are these: rat plasma, 37° C. Here is the method: as §1, §2, §3, §4, §5
For the next data set, the target named is T1, human KRAS G12C protein (Homo sapiens, UniProt P01116, G12C).
T1 construct: purchased Beijing SinoBiological Co., Ltd. 12259-H07E2
Nature of the data set: Thermal shift: melting temperature of KRAS G12C protein. The class given is binding. The conditions noted are these: for Tm (° C.): KRAS G12C protein 5.37 μM with compound 10 μM, 1 hour incubation; for ΔTm at 10 µM: compound 10 μM, Tm minus Tm of DMSO solvent control. How it is done:
A solution containing […] (pH 7.5), 1 mM DTT, 5×SYPRO Orange and 150 mM NaCl was prepared as the experimental buffer, and a final concentration of 5.37 μM human KRAS G12C protein was added thereto. […] After incubating at room temperature in the dark for 1 hour, the PCR tube was put into the PCR instrument, QuantStudio Software v1.3 was opened, and the melting temperature of KRAS G12C protein in different treatment groups was detected by melt curve function (heating from 25° C. to 95° C., 0.03° C./s). The experimental data file of PCR instrument was imported into thermal shift software, and the melting temperature (Tm) of each treatment group was obtained, and the change value of melting temperature (Δ Tm) was obtained by subtracting the Tm of DMSO solvent control group.

Data set [3] relates to Mia PaCa-2 cells (KRAS G12C mutant cell line). Nature of the data set: Inhibition of Mia PaCa-2 cell proliferation (CellTiter-Glo, 72 h). Format: cell-based, human. To be noted: Homo sapiens. From the text:
(§6) As a preferred embodiment of the present disclosure, the detection method of NCI-H358 cell proliferation inhibitory activity and Mia PaCa-2 cell proliferation inhibitory activity is as follows: through cell culture, adding different concentrations of compound solutions to the cultured cells, continuing the culture for a period of time and measuring the cell proliferation; • further, the method of cell culture is: adjusting the cells to a suitable cell concentration with complete medium and spreading the cell suspension in well plates for culture; preferably, the culture conditions are 37° C., 5% CO2 incubator overnight; preferably, the cell suspension is spread in 96-well plates, 48-well plates, 24-well plates, 12-well plates or 6-well plates, more preferably 96-well plates; preferably, the suitable cell concentration is 1500-4000 cells/well, with 90 μL of cell suspension added to each well; • further, the compound solution is prepared with DMSO and may be further diluted with medium; preferably, the compound solution has a concentration gradient starting from 100 μM at 4-fold dilution, more preferably starting from 30 μM at 4-fold dilution, most preferably starting from 10 μM at 4-fold dilution; • further, the volume of the compound solution or solvent added to each well is 1-10 μL, preferably 10 μL; • further, after adding the compound solution, the conditions for continuing the culture are 37° C., 5% CO2 incubator; preferably, the culture time is 24-72 h, more preferably 72 h; • further, the method for measuring cell proliferation is MTT, CCK8, CellTiter-Glo; preferably the method is CellTiter-Glo; • further, the cell proliferation is read using a microplate reader, more preferably a BioTek Synergy H1 microplate reader.
(§7) When NCI-H358 or Mia PaCa-2 cells were cultured to the appropriate fusion level, the NCI-H358 or Mia PaCa-2 cells were collected, and the cells were adjusted to the appropriate cell concentration using a complete medium, and the cell suspension was spread in a 96-well plate, 90 μL per well, and placed in a 37° C., 5% CO2 incubator overnight; and compound solutions of different concentrations were prepared using DMSO and culture medium; and a solvent control was set, the compound solution was added to a 96-well plate, 10 μL per well, at 37° C. in a 5% CO2 incubator for 72 hours; CellTiter-Glo solution was added thereto and the mixture was mixed well by shaking, incubated for 10 min in the dark, and read by BioTek Synergy H1 microplate reader.
(§8) The luminescence signal values were used to calculate the inhibition rate, the concentration and the inhibition rate were fitted to a nonlinear regression curve using Graphpad Prism software, then the IC50 value was obtained.
Background: In ATP-based viability assays light output follows the ATP content of the culture.

The nature of the next data set: in vivo. To be noted: male, Balb/c, mouse, po, 10 mg/kg.
Data set [4] concerns NCI-H358 cells (KRAS G12C mutant cell line). Nature of the data set: Inhibition of NCI-H358 cell proliferation (CellTiter-Glo, 72 h). The class given is cell-based, human. The conditions noted are these: Homo sapiens.
Excerpt: as §6, §7, §8

pIC50: −log10 of the molar value.

Method for in vivo: 5 g of Hydroxyethyl cellulose (HEC, CMC-Na, viscosity: 800-1200 Cps) was weighed, dissolved in 1000 mL of purified water, and 10 g of Tween 80 was added. The mixture was mixed well to form a clear solution.
The embodiment compounds were weighed and added into 4-mL glass bottles, respectively, 2.4 mL of the solution was added, and ultrasound was performed for 10 minutes to obtain a colorless clear solution with a concentration of 1 mg/mL.
Balb/C mice, males; PO, after overnight fasting, respectively, at a dose of 10 mg/kg, administered in a volume of 10 mL/kg.
Blood samples were collected before administration and 0.083 h, 0.25 h, 0.5 h, 1 h, 2 h, 4 h, 6 h and 8 h after administration, the blood was placed in EDTA-2K tube, centrifuged at 4° C. 6000 rpm for 6 min to separate plasma, and stored at −80° C.; food was consumed 4 hours after drug administration.

As to `C=CC(=O)N1CCN(c2nc(=O)n(-c3c(C)ccnc3C(C)C)c3nc(-c4c(O)cccc4F)c(F)cc23)[C@@H](C)C1` [AMG 510, reference compound], in “in vitro” (human, 0.5 μM), the “Residual rate (%) 0 min” value turned out to be 100.00%, the “Residual rate (%) 15 min” value stood at 93.77%, the “Residual rate (%) 30 min” value was found to be 85.72% and the “Residual rate (%) 60 min” value came to 82.51%. The “Residual rate (%) 120 min” value in the data set “in vitro” (human, 0.5 μM) stood at 64.44%. Moreover, in the data set “in vitro” (mouse plasma, 37° C.), the “Residual rate (%) 0 min” value turned out to be 100.00%, the “Residual rate (%) 15 min” value was determined as 97.50%, the “Residual rate (%) 30 min” value is listed as 82.58% and the “Residual rate (%) 60 min” value is 81.82%. In “in vitro” (mouse plasma, 37° C.), the “Residual rate (%) 120 min” value stood at 63.23%. Besides, in data set [1], the “Residual rate (%) 0 min” value came to 100.00%, the “Residual rate (%) 15 min” value came out at 98.88%, the “Residual rate (%) 30 min” value is recorded as 101.14% and the “Residual rate (%) 60 min” value amounted to 93.43%. Besides, the “Residual rate (%) 120 min” value in data set [1] came to 91.92%. Besides, in data set [2], the “Residual rate (%) 0 min” value is given as 100.00%, the “Residual rate (%) 15 min” value is 100.85%, the “Residual rate (%) 30 min” value is reported as 93.03% and the “Residual rate (%) 60 min” value is reported as 77.54%. Moreover, the “Residual rate (%) 120 min” value in data set [2] was found to be 56.77%.

The term ΔTm denotes the change in melting temperature against a reference sample. The term pIC50 denotes the IC50 on a negative log10 scale, so that one unit is a factor of ten. For orientation: AUC(0-inf) means the area under the concentration-time curve extrapolated to infinity. Broadly, the Cmax is the maximum level reached in the sampled fluid or tissue. As usually defined, the MRT is the average time that molecules of a dose stay in the body. As usually defined, the Tmax is the time at which the peak concentration occurs. For orientation: half-life means the time needed for the level to fall by half in the phase considered. Consider `C=CC(=O)N1C[C@H](C)N(c2nc(=O)n(-c3c(SC)ccnc3C(C)C)c3nc(-c4c(O)cccc4F)c(F)cc23)C[C@H]1C` [Embodiment 114, 4-((2S, 5R)-4-acryloyl-2,5-dimethylpiperazin-1-yl)-6-fluoro-7-(2-fluoro-6-hydroxyphenyl)-1-(2-isopropyl-4-(methylthio)pyridin-3-yl) pyrido [2,3-d] pyrimidin-2 (1H)-one], for which, on human KRAS G12C protein, the “Tm (° C.)” value was 57.2 °C and the ΔTm at 10 µM came out at 8.5 °C. In data set [3], the pIC50 is 7.37. Besides, in “in vivo”, the AUC(0-inf) was found to be 1290 ng·h/mL, the Cmax is 1530 ng/mL, the mean residence time (MRT) amounted to 42 min and the Tmax is 15 min. The compound further showed a half-life in “in vivo” of 36 min. In addition, the negative logarithm of the IC50 (pIC50) in data set [4] is 7.30.

As for `C=CC(=O)N1CCN(c2nc(=O)n(-c3c(SC)cc(C)nc3C(C)C)c3nc(-c4c(O)cccc4F)c(F)cc23)[C@@H](C)C1` [Embodiment 152, 4-((S)-4-acryloyl-2-methylpiperazin-1-yl)-6-fluoro-7-(2-fluoro-6-hydroxyphenyl)-1-(2-isopropyl-6-methyl-4-(methylthio)pyridin-3-yl) pyrido [2,3-d] pyrimidin-2 (1H)-one], on human KRAS G12C protein, the “Tm (° C.)” value worked out at 60.0 °C and the ΔTm at 10 µM amounted to 11.4 °C. Moreover, in data set [3], the pIC50 was 7.04. Further, the pIC50 in data set [4] was 7.35.

Consider `C=CC(=O)N1CCN(c2nc(=O)n(-c3c(S(C)(=O)=O)ccnc3C(C)C)c3nc(-c4c(O)cccc4F)c(Cl)cc23)[C@@H](C)C1` [Embodiment 155, 4-((S)-4-acryloyl-2-methylpiperazin-1-yl)-6-chloro-7-(2-fluoro-6-hydroxyphenyl)-1-(2-isopropyl-4-(methylsulfonyl)pyridin-3-yl) pyrido [2,3-d] pyrimidin-2 (1H)-one], for which, at human KRAS G12C protein, the “Tm (° C.)” value is 60.9 °C and the thermal shift (ΔTm) at 10 µM is 11.1 °C. Also, in data set [3], the pIC50 was 7.59. Also, the negative logarithm of the IC50 (pIC50) in data set [4] was 7.62.

Take `C=CC(=O)N1C[C@H](C)N(c2nc(=O)n(-c3c(SC)ccnc3C(C)C)c3nc(-c4c(N)ccc(Cl)c4F)c(Cl)cc23)C[C@H]1C` [Embodiment 165, 4-((2S, 5R)-4-acryloyl-2,5-dimethylpiperazin-1-yl)-7-(6-amino-3-chloro-2-fluorophenyl)-6-chloro-1-(2-isopropyl-4-(methylthio)pyridin-3-yl) pyrido [2,3-d] pyrimidin-2 (1H)-one]: at human KRAS G12C protein, the “Tm (° C.)” value was 58.0 °C and the shift in melting temperature (ΔTm) at 10 µM was determined as 11 °C. Moreover, in data set [3], the negative-log IC50 (pIC50) is 8.12. Further, the pIC50 in data set [4] is 8.23.

For the compound `CC[C@H](C)C(=O)O[C@H]1C[C@@H](C)C=C2C=C[C@H](C)[C@H](CC[C@@H]3C[C@@H](O)CC(=O)O3)[C@H]21` [Lovastatin, reference compound], in data set [1], the “t1/2” value came out at 80.22 min, the “Residual rate (%) 0 min” value is recorded as 100.00%, the “Residual rate (%) 15 min” value turned out to be 95.25% and the “Residual rate (%) 30 min” value amounted to 95.45%. For the same compound, in data set [1], the “Residual rate (%) 60 min” value is reported as 75.66% and the “Residual rate (%) 120 min” value was 36.25%. For the same compound, in data set [2], the “t1/2” value was 6.69 min, the “Residual rate (%) 0 min” value was determined as 100.00%, the “Residual rate (%) 15 min” value was 21.15% and the “Residual rate (%) 30 min” value is listed as 1.77%. Also, in data set [2], the “Residual rate (%) 60 min” value worked out at 0.36% and the “Residual rate (%) 120 min” value was 0.30%.
